Assay results from ChEMBL document CHEMBL1201862, “PubChem BioAssay data set” (2004).
Calls of active or inactive are those of the source.

Legend:
[1] = molecular target: SUMO E1/E2 (Homo sapiens, UniProt P63279+Q9UBE0+Q9UBT2); test: SAR analysis of SUMOylation using HTRF in an in-Vitro dose response assay. [Related pubchem assays (depositor defined):AID2006, AID2011, AID2018, AID2069, AID2658]; assay type: functional
[2] = molecular target: Induced myeloid leukemia cell differentiation protein Mcl-1 (Homo sapiens, UniProt Q07820); assay type: functional
[3] = molecular target: Genome polyprotein (Hepatitis C virus, UniProt Q2Q167); test: disruption of hepatitis C core self-association – biochemical, TR-FRET, dose response (AID 2159); set-up: species or system Hepacivirus hominis;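 further: blocks dimerization of HCV core protein measured by TR-FRET between tagged core106 pairs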
[4] = molecular target: T1, Small ubiquitin-related modifier 1 (Homo sapiens, UniProt P63165); test: SUMO1 protein-protein binding blockers, potency – biochemical, FRET, dose response (AID 624383); assay type: functional; details: read-out: IC50_Mean
[5] = molecular target: T2, Voltage-gated N-type calcium channel alpha-1B subunit/Amyloid beta A4 precursor protein-binding family A member 1 (Homo sapiens, UniProt Q00975+Q02410); assay type: protein assay
[6] = molecular target: T2, Voltage-gated N-type calcium channel alpha-1B subunit/Amyloid beta A4 precursor protein-binding family A member 1; test: disruptors of Mint-PDZ/N-type channel peptide interaction – biochemical, HTRF, SAR follow-up (AID 2489); assay type: functional
[7] = molecular target: T2, Voltage-gated N-type calcium channel alpha-1B subunit/Amyloid beta A4 precursor protein-binding family A member 1; assay type: protein assay; remark: listed apart in the source
[8] = molecular target: T2, Voltage-gated N-type calcium channel alpha-1B subunit/Amyloid beta A4 precursor protein-binding family A member 1; test: disruptors of Mint-PDZ/N-type channel peptide interaction – biochemical, HTRF, set 2, SAR follow-up (AID 434980); assay type: functional
[9] = molecular target: Albumin (Bos taurus, UniProt P02769); test: Counterscreen for inhibitors of T-cell receptor (TCR)-CD3 interaction: Fluorescence-based biochemical high throughput dose response assay to identify inhibitors of T-cell receptor (TCR)-CD3 interaction using a TAMRA-labeled BSA probe.; assay type: functional
[10] = molecular target: T1, Small ubiquitin-related modifier 1; test: SUMO1 protein interaction blockers, potency – biochemical, fluorescence polarization, uHTS hits, dose response (AID 624382); assay type: functional; details: read-out: IC50_Mean
[11] = DRD fibroblast viability loss – cell-based, non-viral oncogenic, luminescence, dose response (AID 1934); assay type: functional; details: Homo sapiens
[12] = tested on: BJ; test: BJ-TERT fibroblast viability loss – cell-based, RAS-independent, luminescence, dose response (AID 1933); assay type: functional; details: Homo sapiens
[13] = tested on: BJ; test: cells; assay type: functional, cell-based; details: Homo sapiens
[14] = tested on: J774.A1; test: Confirmation of image-based Screening Assay for Inhibitors of Phagocytosis. [Related pubchem assays (depositor defined):AID1029, AID1643]; assay type: functional, cell-based; details: Mus musculus
[15] = tested on: BJ; test: BJ-TERT-LT-ST fibroblast viability loss – cell-based, RAS-independent, luminescence, dose response (AID 1935); assay type: functional; details: Homo sapiens;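 further: BJ fibroblasts immortalized with TERT plus LT and ST oncogenes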
[16] = THP-1 cell cytotoxicity, dose response, cytotoxicity control for non-replicating M. tuberculosis project (AID 489025); assay type: functional
[17] = molecular target: T3, Heat shock factor protein 1 (Mus musculus, UniProt P38532); test: enhancement of HSF1-driven luciferase signal – cell-based, NIH3T3, luminescence, dose retest, confirmation (AID 435004); assay type: functional;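 further: stress induced by proteasome inhibitor MG132 added 30 min after compound; luciferase reporter driven by HSF1 response element in NIH3T3 cells; actives raise luminescence as potentiators of the MG132 stress response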
T3 sequence (P38532 whole entry): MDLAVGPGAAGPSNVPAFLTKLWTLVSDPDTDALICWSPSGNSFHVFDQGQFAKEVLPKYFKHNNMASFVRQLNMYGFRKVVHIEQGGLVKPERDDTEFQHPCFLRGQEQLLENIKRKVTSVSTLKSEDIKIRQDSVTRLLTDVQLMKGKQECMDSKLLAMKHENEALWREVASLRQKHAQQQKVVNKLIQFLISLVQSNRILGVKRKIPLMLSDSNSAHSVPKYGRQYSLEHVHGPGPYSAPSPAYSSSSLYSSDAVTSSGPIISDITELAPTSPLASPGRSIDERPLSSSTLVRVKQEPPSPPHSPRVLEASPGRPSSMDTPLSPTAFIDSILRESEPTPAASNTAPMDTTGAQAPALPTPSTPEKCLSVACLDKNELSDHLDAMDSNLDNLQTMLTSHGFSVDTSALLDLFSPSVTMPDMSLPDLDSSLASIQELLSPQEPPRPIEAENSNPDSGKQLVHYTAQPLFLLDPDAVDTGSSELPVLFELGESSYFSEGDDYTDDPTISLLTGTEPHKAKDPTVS

[18] = HepG2 cell cytotoxicity, dose response, cytotoxicity control for non-replicating M. tuberculosis project (AID 489018); assay type: functional; details: Mycobacterium tuberculosis
[19] = molecular target: Beta Lactamase (Pseudomonas aeruginosa, UniProt Q932Y6); test: BLA reporter interference, concentration series – BLA reporter cells, FRET fluorescence, artefact control for TLR9-MyD88 binding inhibitor project, dose response (AID 588341); assay type: cell-based;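 further: cell based assay in CHO-K1 cells stably expressing beta-lactamase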
[20] = Vero E6 cell cytotoxicity, dose response, cytotoxicity control for non-replicating M. tuberculosis project, secondary assay (AID 492998); assay type: functional, VeroE6; details: Vero C1008
[21] = luciferase reporter signal suppression in cells – H4 neuroglioma cells, luminescence, dose response (AID 1990); assay type: functional, cell-based
[22] = molecular target: Beta-galactosidase (Escherichia coli, UniProt Q8VNN2); assay type: functional
[23] = molecular target: T4, Kappa-type opioid receptor (Homo sapiens, UniProt P41145); assay type: functional
[24] = molecular target: T4, Kappa-type opioid receptor; assay type: functional; remark: listed apart in the source
[25] = cells; assay type: functional
[26] = Luminescence Cell-Based Dose Response HTS to Identify Inhibitors of 5'UTR Stem-Loop Driven Prion Protein mRNA Translation in H4 Neuroglioblastoma Cells. [Related pubchem assays: 1827 (Project Summary), 1813 (Primary HTS)]; assay type: functional
[27] = alpha-synuclein stem-loop luciferase translation blockers – H4 neuroglioma cells, luminescence, confirmation (AID 1988); assay type: functional, cell-based
[28] = tested on: CHO; test: CHO cell viability loss, potency – luminescence, cytotoxicity control for TLR9-MyD88 binding inhibitor project, dose response (AID 588339); assay type: functional, cell-based, hamster; details: Cricetulus griseus;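 further: CHO cells stably coexpressing TLR9 and MyD88 fusions from primary screen; compound exposure lasted 48 hours before viability readout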

T2 sequence (Q00975 whole entry): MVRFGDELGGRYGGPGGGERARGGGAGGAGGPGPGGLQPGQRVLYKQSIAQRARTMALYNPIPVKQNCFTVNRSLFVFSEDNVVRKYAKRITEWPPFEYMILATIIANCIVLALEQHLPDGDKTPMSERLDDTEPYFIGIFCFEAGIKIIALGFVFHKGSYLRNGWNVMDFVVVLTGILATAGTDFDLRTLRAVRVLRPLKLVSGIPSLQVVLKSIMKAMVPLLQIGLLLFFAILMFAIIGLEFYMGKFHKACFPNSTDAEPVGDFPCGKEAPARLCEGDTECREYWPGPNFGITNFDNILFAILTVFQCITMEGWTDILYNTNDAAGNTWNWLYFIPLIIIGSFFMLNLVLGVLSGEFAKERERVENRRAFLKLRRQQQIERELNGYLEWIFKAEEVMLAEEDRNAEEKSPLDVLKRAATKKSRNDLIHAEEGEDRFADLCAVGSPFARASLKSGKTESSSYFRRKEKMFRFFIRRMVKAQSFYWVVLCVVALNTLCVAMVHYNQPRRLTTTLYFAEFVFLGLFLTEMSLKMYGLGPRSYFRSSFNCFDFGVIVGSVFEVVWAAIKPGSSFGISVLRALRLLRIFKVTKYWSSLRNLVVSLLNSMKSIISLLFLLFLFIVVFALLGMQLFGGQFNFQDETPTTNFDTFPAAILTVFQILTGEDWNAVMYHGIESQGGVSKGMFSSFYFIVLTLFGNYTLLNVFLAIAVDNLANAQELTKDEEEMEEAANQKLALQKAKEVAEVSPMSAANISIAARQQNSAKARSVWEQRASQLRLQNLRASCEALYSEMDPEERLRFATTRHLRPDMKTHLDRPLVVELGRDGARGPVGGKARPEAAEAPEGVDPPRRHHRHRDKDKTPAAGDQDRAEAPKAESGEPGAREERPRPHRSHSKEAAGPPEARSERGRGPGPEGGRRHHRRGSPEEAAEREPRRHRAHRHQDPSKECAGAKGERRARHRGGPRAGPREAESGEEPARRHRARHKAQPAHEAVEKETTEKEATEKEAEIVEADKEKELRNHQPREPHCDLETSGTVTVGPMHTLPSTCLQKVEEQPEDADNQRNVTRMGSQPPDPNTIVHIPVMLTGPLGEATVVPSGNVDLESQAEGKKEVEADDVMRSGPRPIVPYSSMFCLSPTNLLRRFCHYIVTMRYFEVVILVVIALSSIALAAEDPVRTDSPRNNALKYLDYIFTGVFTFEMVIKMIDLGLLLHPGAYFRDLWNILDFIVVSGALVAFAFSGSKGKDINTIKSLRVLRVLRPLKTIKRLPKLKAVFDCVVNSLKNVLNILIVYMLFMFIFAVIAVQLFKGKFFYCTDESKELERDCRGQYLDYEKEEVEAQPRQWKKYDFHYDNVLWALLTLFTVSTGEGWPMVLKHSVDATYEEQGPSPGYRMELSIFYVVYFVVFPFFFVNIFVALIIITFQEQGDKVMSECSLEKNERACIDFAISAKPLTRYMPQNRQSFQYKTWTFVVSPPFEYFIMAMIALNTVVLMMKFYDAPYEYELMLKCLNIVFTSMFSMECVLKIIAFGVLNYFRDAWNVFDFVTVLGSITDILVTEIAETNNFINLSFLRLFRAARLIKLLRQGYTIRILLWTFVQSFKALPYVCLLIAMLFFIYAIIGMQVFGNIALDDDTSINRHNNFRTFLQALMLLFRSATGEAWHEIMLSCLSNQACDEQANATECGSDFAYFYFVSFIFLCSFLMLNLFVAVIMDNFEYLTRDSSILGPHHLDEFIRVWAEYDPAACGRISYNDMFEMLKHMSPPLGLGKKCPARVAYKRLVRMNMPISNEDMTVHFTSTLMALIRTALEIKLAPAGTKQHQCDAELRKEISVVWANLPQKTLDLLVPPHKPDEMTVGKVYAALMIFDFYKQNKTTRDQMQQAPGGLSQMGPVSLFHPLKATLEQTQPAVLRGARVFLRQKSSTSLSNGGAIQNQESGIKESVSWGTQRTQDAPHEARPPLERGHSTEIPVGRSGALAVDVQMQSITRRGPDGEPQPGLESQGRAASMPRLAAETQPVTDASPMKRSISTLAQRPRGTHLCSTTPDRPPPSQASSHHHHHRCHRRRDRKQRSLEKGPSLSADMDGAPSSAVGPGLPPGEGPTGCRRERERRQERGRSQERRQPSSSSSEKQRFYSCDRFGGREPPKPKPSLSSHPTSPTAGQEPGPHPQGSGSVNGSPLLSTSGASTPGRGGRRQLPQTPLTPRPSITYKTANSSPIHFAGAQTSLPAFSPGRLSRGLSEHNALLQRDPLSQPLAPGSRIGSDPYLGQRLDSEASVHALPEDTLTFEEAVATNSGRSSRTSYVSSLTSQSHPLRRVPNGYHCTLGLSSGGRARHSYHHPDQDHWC
T2 sequence (Q02410 whole entry): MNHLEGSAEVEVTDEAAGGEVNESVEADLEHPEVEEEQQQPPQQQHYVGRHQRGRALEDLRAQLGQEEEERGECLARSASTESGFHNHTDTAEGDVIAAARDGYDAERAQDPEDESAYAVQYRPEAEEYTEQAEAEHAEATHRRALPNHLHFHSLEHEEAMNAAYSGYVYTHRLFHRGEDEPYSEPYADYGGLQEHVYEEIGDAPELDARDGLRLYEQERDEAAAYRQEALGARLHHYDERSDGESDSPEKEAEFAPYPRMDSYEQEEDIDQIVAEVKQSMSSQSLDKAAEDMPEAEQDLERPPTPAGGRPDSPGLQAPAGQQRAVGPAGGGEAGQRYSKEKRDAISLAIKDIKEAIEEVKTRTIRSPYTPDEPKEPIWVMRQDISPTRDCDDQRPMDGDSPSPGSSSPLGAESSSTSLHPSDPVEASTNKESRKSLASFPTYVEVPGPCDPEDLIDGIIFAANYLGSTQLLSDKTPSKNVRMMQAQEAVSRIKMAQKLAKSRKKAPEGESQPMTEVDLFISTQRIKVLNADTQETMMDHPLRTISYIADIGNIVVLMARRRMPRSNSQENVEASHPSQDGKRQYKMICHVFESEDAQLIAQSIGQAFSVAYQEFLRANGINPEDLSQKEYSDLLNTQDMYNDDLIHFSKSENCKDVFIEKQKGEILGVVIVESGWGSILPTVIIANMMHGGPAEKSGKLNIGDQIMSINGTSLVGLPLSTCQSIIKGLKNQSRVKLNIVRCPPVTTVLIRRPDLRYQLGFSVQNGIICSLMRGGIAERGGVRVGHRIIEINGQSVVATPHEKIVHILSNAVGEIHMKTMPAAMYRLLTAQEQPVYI
T1 sequence (P63165 whole entry): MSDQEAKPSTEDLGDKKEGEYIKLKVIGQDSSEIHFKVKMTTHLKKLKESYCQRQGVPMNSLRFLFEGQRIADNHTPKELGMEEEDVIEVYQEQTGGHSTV
T4 sequence (P41145 whole entry): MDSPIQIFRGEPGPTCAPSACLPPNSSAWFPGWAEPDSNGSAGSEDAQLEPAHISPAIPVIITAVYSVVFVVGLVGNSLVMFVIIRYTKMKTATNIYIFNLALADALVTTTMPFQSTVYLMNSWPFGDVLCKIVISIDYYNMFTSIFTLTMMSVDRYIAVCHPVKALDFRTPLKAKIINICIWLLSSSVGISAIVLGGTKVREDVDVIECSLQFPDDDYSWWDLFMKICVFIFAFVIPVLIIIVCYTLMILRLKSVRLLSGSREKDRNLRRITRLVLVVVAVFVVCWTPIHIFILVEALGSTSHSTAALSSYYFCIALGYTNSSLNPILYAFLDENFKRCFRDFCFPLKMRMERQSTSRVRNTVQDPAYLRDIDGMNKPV
Induced myeloid leukemia cell differentiation protein Mcl-1, sequence (Q07820 whole entry): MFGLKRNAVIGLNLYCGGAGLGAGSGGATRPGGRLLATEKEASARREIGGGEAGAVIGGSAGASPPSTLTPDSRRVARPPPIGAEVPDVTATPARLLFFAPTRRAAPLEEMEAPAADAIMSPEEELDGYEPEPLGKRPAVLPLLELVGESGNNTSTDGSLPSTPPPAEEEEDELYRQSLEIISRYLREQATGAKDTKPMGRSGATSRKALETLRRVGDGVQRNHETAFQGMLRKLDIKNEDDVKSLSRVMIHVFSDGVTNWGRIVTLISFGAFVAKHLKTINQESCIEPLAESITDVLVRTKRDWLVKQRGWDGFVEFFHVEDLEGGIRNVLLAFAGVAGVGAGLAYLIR
Beta Lactamase, sequence (Q932Y6 whole entry): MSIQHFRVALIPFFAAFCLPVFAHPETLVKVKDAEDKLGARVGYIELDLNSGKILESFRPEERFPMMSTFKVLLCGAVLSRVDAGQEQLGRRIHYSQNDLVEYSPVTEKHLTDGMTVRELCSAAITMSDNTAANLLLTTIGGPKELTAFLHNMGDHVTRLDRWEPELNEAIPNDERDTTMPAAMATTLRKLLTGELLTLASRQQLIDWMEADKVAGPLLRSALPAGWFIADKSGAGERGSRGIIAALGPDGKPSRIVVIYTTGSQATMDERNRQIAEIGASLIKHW
Albumin, sequence (P02769 whole entry): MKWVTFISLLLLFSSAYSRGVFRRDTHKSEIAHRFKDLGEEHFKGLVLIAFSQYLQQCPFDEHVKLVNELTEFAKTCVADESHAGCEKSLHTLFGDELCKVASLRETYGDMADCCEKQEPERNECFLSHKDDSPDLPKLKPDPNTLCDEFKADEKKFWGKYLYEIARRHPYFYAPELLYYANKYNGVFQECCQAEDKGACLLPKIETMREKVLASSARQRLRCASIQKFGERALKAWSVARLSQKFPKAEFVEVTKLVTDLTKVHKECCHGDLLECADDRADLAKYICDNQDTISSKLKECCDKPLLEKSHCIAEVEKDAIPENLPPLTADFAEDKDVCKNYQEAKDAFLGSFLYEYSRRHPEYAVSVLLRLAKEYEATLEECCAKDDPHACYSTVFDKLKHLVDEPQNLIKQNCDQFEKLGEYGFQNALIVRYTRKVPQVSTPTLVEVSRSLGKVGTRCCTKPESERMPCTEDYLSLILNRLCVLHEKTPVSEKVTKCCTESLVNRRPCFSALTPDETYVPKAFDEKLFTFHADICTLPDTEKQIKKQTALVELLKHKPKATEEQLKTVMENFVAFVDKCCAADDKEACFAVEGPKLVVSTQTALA
Genome polyprotein, sequence (Q2Q167 whole entry): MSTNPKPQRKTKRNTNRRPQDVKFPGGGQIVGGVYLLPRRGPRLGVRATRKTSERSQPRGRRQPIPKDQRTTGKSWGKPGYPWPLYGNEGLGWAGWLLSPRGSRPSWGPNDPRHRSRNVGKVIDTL

CN(C(=O)COC(=O)c1cc(-c2ccco2)nc2ccccc12)C1CCS(=O)(=O)C1 (stereo not drawn)
IC50 [1]: 2.66 µM (active) | IC50 [2]: 1.59 µM (active) | IC50 [3]: > 49.8 µM (not active) | IC50 [4]: 4.99 µM (active) | IC50 [5]: 2.15 µM (active) | IC50 [6]: 4.74 µM (active) | IC50 [7]: 28.8 µM (active) | IC50 [8]: 3.26 µM (active) | IC50 [9]: > 94.1 µM (inactive) | IC50 [10]: > 66.6 µM (inactive)

CCN1CCN(c2ncc3c(n2)CC(c2cc(OC)c(OC)c(OC)c2)CC3=O)CC1 (stereo not drawn)
EC50 [11]: 2.34 µM (active) | EC50 [12]: 5.01 µM (active) | EC50 [13]: 124 µM (active) | IC50 [14]: 0.419 µM (active) | EC50 [15]: 21.8 µM (active)

CS(=O)(=O)c1sc(C#N)c2c1C(=O)CC(c1ccccc1)C2 (stereo not drawn)
CC50 [16]: 4.22 µM (active) | EC50 [17]: 17.8 µM (active) | CC50 [18]: 4.85 µM (active) | IC50 [19]: 7.08 µM (active) | CC50 [20]: 5.26 µM (active) | EC50 [21]: > 120 µM (not active) | EC50 [22]: > 31.5 µM (inactive) | IC50 [23]: 4.62 µM (active) | IC50 [24]: 3.24 µM | IC50 [25]: 0.78 µM (active) | EC50 [26]: 10.3 µM (active) | EC50 [27]: 7.83 µM (active) | IC50 [28]: 2.74 µM (active)
